Read-outs that look alike come from different tables or passages of the source.
Assays:
hERG receptor = hERG receptor (Homo sapiens (Human), UniProt Q12809); assay: HERGBD: inhibition of specific [3H]-Dofetilide binding to the hERG receptor
Experimental: Inhibition of Specific Binding to the hERG—Receptor (HERGBD)
A HEK cell line with stable transfected human ERG receptor was used for the assay. The cells were grown adherently and maintained in DULBECCOS' MEM medium with 10% FBS, 1% non-essential amino acids, 1% Penicillin/Streptomycin and 400 μg/ml G418 (Calbiochem).
For binding assays and membrane preparations the cell culture medium was removed, cells were washed with PBS. Crude membranes for radioligand binding experiments were prepared by scraping the cells off the dishes in ice cold 20 mM HEPES/0.1 mM KCl/pH 7.2. The cell suspension was homogenized on ice (Ultra turrax, 3×20 sec.) and the homogenate was spun for 10 min (1° C., 1000 g, OPTIMA, SW28, 2800 U/min). The supernatant was than centrifuged for 40 min at 100000 g (1° C., OPTIMA, SW28, 23000 U/min). The membrane pellet was re-suspended in 20 mM HEPES/0.1 mM KCl pH 7.2, frozen and stored at −80° C.
After thawing on the day of the assay, the membrane suspension was diluted further with 20 mM HEPES/0.1 mM KCl/pH 7.2.
The incubation mixture of 200 μl contained 1.5 nmol/l 3H-Dofetilide, optimized amount of membrane preparation, 20 mM HEPES/0.1 mM KCl/(pH 7.2) and inhibitor in 1% DMSO. Nonspecific binding was estimated in the presence of […] Dofetilide. The samples were incubated for 90 min. at RT.
Binding was terminated by filtration of the incubated membrane preparations using Filtermat B (Pharmacia, Uppsala Sweden) and a Micro Cell Harvester (Skatron, Lier, Norway). The Filtermat B had been presoaked with 1% polyethylen imine and carefully washed with 0.05 M Tris/HCl-buffer pH=7.7 after the filtration to separate free and bound radioactivity. The filters were counted in a scintillation counter (Betaplate 1205, Berthold, Wildbad, Germany) in order to determine the specific binding of [^3H]-Dofetilide.
The optimal amount of membrane preparation in the assay was determined and optimized for each membrane preparation separately in front of using the membranes in compound testing.
For pipetting of the incubation mixture we routinely use the robot Biomek2000 (Fa. Beckman).

rat NR1/NR2B receptor = rat NR1/NR2B receptor (Rattus norvegicus (Rat), UniProt P35439+Q00960); assay: NR2B binding assay: inhibition of specific [3H]-Ifenprodil binding to the rat NR1/NR2B receptor; details: [3H]-Ifenprodil binding, rat brain membranes; for inhibition at 1 µM: 1 μM test compound, read-out: % INH @ 1 μM; for inhibition at 10 µM: 10 μM test compound, read-out: % INH @ 10 μM
Sequence of rat NR1/NR2B receptor (Q00960 27-1482, other chains not shown): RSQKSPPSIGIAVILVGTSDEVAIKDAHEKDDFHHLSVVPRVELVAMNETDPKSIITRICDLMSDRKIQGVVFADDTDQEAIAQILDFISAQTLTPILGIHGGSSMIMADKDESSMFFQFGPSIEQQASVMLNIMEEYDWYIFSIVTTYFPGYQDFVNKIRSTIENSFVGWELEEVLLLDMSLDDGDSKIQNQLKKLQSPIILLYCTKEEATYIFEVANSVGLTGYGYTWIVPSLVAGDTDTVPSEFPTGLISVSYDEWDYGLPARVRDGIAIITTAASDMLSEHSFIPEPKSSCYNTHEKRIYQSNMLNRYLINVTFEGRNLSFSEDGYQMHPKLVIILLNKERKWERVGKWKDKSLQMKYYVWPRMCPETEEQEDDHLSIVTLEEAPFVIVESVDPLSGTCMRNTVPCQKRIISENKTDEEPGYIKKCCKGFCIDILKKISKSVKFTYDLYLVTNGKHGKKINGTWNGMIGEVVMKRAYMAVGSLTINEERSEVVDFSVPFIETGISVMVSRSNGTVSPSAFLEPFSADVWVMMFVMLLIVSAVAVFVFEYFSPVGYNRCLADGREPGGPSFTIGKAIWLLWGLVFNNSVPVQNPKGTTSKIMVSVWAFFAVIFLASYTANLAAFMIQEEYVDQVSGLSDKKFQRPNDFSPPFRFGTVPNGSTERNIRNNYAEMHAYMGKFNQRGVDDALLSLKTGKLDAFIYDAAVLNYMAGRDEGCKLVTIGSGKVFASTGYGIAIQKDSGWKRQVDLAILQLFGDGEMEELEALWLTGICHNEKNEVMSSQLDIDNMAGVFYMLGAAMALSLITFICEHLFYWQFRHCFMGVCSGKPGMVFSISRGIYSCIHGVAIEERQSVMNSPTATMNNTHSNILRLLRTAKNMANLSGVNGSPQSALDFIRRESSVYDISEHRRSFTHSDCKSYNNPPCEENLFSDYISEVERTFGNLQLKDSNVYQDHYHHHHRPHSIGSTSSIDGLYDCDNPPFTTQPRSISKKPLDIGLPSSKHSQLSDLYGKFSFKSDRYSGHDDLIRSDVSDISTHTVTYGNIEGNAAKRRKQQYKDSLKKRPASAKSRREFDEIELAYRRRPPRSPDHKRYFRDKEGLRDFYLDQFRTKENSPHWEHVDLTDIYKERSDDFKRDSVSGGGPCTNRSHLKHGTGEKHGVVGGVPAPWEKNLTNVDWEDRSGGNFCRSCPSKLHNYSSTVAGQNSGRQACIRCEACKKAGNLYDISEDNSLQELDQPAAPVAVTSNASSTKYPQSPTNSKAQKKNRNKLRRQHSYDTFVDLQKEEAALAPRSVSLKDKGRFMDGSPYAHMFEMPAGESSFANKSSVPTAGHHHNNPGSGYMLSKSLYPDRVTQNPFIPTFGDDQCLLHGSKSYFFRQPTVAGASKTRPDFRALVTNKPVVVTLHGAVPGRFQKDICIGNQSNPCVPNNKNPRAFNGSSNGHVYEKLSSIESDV
Experimental: Biological Assays Inhibition of Specific Binding to the Rat NR1/NR2B Receptor
Male Wistar rats (180 to 200 g) were killed by suffocation in a CO2 chamber for two minutes. Whole brains without cerebellum were removed and dissected on ice, placed into closed vials and stored at −70° C.
Membrane fractions were prepared and tested using standard techniques. At the time of the assay, 1 g of the brains was placed into 25 ml of 50 mM Tris/10 mM EDTA buffer, pH 7.1, (25 vol. per g of original tissue) and homogenized for 30 sec at 20000 rpm with an Ultraturrax T25 (Jahnke & Kunkel, IKA-Labortechnik, Staufen, Germany).
The supernatant was discarded and the pellet was homogenized on ice for 30 sec at 20000 rpm with an Ultraturrax and again centrifuged at 48000 g for 30 minutes at 4° C. The resultant pellet was resuspended in 25 ml of 50 mM Tris/10 mM EDTA buffer, homogenized for 30 sec with an Ultraturrax, aliquoted, frozen at −70° C. and stored until use.
After thawing on the day of the assay, a 5 ml membrane aliquot was centrifuged at 48000 g for 30 min at 4° C. The pellet was resuspended in 5 ml of 5 mM Tris/1 mM EDTA buffer, pH 7.4, homogenized for 30 sec at 20000 rpm with an Ultraturrax and centrifuged at 48000 g for 30 min at 4° C. This was repeated twice. The final pellet was homogenized in 5 ml of 5 mM Tris/1 mM EDTA buffer at 4° C. with an Ultraturrax and used for the Ifenprodil-binding assay as described in the following.
Nonspecific binding was estimated in the presence of […] CP101.606. The samples were incubated for 60 min. at 4° C.
The incubation was terminated by filtration of the membrane preparations using Filtermat B (Pharmacia, Uppsala Sweden) and a Micro Cell Harvester (Skatron, Lier, Norway). The Filtermat B had been presoaked with 1% polyethylene imine and carefully washed with 50 mM Tris/HCl-buffer pH 7.7 after the filtration to separate free and bound radioactivity.
The optimal amount of membrane preparation in the assay was determined and optimized for each membrane preparation separately before the test.
For pipetting of the incubation mixture the robot Biomek2000 (Fa. Beckman) was used.
For determination of IC50 values the Hill-plot, 2-parameter-model was used.

[1] = [3H]-Dofetilide binding, membranes of HEK cells with human ERG receptor, read-out: IC50

Sequence of hERG receptor (Q12809 whole entry): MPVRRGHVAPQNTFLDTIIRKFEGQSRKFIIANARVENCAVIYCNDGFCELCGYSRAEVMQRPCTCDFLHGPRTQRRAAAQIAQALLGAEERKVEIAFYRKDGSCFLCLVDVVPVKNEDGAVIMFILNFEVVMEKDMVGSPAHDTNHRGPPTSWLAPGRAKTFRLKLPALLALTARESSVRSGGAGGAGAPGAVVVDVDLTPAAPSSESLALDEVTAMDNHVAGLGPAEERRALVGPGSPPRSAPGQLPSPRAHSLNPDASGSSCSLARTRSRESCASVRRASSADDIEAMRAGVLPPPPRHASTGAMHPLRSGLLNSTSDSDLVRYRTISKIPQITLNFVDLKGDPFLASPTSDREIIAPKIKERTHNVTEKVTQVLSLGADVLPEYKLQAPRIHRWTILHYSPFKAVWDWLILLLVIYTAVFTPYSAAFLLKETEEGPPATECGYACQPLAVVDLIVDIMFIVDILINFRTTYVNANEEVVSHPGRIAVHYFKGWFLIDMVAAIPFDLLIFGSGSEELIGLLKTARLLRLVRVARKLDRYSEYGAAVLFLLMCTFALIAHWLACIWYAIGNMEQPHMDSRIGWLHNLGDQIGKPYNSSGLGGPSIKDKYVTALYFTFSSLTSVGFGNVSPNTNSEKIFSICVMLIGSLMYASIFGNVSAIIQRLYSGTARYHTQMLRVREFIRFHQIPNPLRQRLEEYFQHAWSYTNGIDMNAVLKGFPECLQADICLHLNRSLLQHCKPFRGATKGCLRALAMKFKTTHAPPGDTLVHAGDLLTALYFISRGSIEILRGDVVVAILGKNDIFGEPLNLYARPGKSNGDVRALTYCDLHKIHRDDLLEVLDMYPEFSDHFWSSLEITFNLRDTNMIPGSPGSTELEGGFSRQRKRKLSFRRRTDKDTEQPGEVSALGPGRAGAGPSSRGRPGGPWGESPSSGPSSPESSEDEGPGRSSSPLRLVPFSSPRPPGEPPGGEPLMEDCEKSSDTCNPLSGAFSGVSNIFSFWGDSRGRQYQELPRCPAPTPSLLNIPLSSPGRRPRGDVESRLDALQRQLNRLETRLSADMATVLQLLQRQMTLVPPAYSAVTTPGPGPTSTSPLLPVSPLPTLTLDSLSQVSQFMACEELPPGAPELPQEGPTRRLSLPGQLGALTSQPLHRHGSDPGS

Compound	IC50 (hERG receptor; [1])	IC50 (rat NR1/NR2B receptor)	IC50 (hERG receptor)	inhibition at 1 µM (rat NR1/NR2B receptor)	inhibition at 10 µM (rat NR1/NR2B receptor)
Cc1cc(Cn2cc(-c3ccc(Cl)c(OC(F)F)c3)cn2)n(C)n1 [Example 3, 5-[[4-[4-Chloro-3-(difluoromethoxy)phenyl]pyrazol-1-yl]methyl]-1,3-dimethyl-pyrazole]	23.3 µM	146 nM	–	–	–
Cn1nccc1Cn1cc(-c2ccc(Cl)c(OC(F)F)c2)cn1 [Example 5, 4-[4-Chloro-3-(difluoromethoxy)phenyl]-1-[(2-methylpyrazol-3-yl)methyl]pyrazole]	–	148 nM	64.3 µM	–	–
CCn1ccc(Cn2cc(-c3ccc(Cl)c(OC(F)F)c3)cn2)n1 [Example 8, 3-[[4-[4-Chloro-3-(difluoromethoxy)phenyl]pyrazol-1-yl]methyl]-1-ethyl-pyrazole]	–	281 nM	41 µM	–	–
CCn1cc(CCn2cc(-c3ccc(Cl)c(OC(F)F)c3)cn2)cn1 [Example 10, 4-[4-Chloro-3-(difluoromethoxy)phenyl]-1-[2-(1-ethylpyrazol-4-yl)ethyl]pyrazole]	–	250 nM	18.4 µM	–	–
CCC(CC)n1ccc(Cn2cc(-c3ccc(Cl)c(OC(F)F)c3)cn2)n1 [Example 11, 3-[[4-[4-Chloro-3-(difluoromethoxy)phenyl]pyrazol-1-yl]methyl]-1-(1-ethylpropyl)pyrazole]	12.7 µM	–	–	2.7%	–
FC(F)Oc1cc(-c2cnn(Cc3ccn(C4CCCC4)n3)c2)ccc1Cl [Example 12, 3-[[4-[4-Chloro-3-(difluoromethoxy)phenyl]pyrazol-1-yl]methyl]-1-cyclopentyl-pyrazole]	–	280 nM	8.06 µM	–	–
Cc1cc(Cn2cc(-c3ccc(Cl)c(OC(F)F)c3)cn2)[nH]n1 [Example 13, 4-[4-Chloro-3-(difluoromethoxy)phenyl]-1-[(3-methyl-1H-pyrazol-5-yl)methyl]pyrazole]	–	22.1 nM	37 µM	–	–
CCCc1cc(Cn2cc(-c3ccc(Cl)c(OC(F)F)c3)cn2)n[nH]1 [Example 15, 3-[[4-[4-Chloro-3-(difluoromethoxy)phenyl]pyrazol-1-yl]methyl]-5-propyl-1H-pyrazole]	7.93 µM	163 nM	–	–	–
Cn1cc(Cn2cc(-c3ccc(F)c(OC(F)F)c3)cn2)cn1 [Example 19, 4-[3-(difluoromethoxy)-4-fluoro-phenyl]-1-[(1-methylpyrazol-4-yl)methyl]pyrazole]	–	202 nM	> 100 µM	–	–
Cn1ccc(Cn2cc(-c3cccc(OC(F)(F)F)c3)cn2)n1 [Example 23, 1-Methyl-3-[[4-[3-(trifluoromethoxy)phenyl]pyrazol-1-yl]methyl]pyrazole Succinate]	–	1590 nM	9.24 µM	–	–
Cn1ccc(Cn2cc(-c3ccc(Cl)c(C(F)F)c3)cn2)n1 [Example 24, 3-[[4-[4-chloro-3-(difluoromethyl)phenyl]pyrazol-1-yl]methyl]-1-methyl-pyrazole]	4.89 µM	410 nM	–	–	–
Cc1cc(Cn2cc(-c3ccc(Cl)c(C(F)F)c3)cn2)n(C)n1 [Example 25, 5-[[4-[4-Chloro-3-(difluoromethyl)phenyl]pyrazol-1-yl]methyl]-1,3-dimethyl-pyrazole]	49.6 µM	980 nM	–	–	–
Cc1cc(Cn2cc(-c3ccc(Cl)c(C(F)(F)F)c3)cn2)n(C)n1 [Example 29, 5-[[4-[4-chloro-3-(trifluoromethyl)phenyl]pyrazol-1-yl]methyl]-1,3-dimethyl-pyrazole Succinate]	–	2540 nM	17.9 µM	–	–
Cn1ccc(Cn2cc(-c3ccc(Cl)c(C(F)(F)F)c3)cn2)n1 [Example 30, 3-[[4-[4-chloro-3-(trifluoromethyl)phenyl]pyrazol-1-yl]methyl]-1-methyl-pyrazole]	–	1010 nM	3.47 µM	–	–
Cc1cc(Cn2cc(-c3ccc(F)c(C(F)F)c3)cn2)n(C)n1 [Example 32, 5-[[4-[3-(Difluoromethyl)-4-fluoro-phenyl]pyrazol-1-yl]methyl]-1,3-dimethyl-pyrazole]	–	323 nM	38.6 µM	–	–
Cn1cc(Cn2cc(-c3ccc(F)c(C(F)F)c3)cn2)cn1 [Example 33, 4-[3-(Difluoromethyl)-4-fluoro-phenyl]-1-[(1-methylpyrazol-4-yl)methyl]pyrazole]	–	371 nM	> 100 µM	–	–
Cc1n[nH]c(C)c1CCn1cc(-c2ccc(F)c(C(F)F)c2)cn1 [Example 36, 4-[2-[4-[3-(Difluoromethyl)-4-fluoro-phenyl]pyrazol-1-yl]ethyl]-3,5-dimethyl-1H-pyrazole]	–	424 nM	29.6 µM	–	–
Fc1ccc(-c2cnn(CCc3cn[nH]c3)c2)cc1C(F)F [Example 37, 4-[3-(Difluoromethyl)-4-fluoro-phenyl]-1-[2-(1H-pyrazol-4-yl)ethyl]pyrazole]	–	2060 nM	38.1 µM	–	–
CCn1ccc(Cn2cc(-c3ccc(F)c(C(F)F)c3)cn2)n1 [Example 38, 3-[[4-[3-(Difluoromethyl)-4-fluoro-phenyl]pyrazol-1-yl]methyl]-1-ethyl-pyrazole]	–	443 nM	> 100 µM	–	–
Cc1ccc(-c2cnn(Cc3ccn(C)n3)c2)cc1F [Example 53, 3-[[4-(3-fluoro-4-methyl-phenyl)pyrazol-1-yl]methyl]-1-methyl-pyrazole Succinate]	–	3840 nM	–	–	–
Cc1cc(Cn2cc(-c3ccc(F)c(C)c3)cn2)n(C)n1 [Example 54, 5-[[4-(4-fluoro-3-methyl-phenyl)pyrazol-1-yl]methyl]-1,3-dimethyl-pyrazole Succinate]	> 100 µM	–	–	–	–
Cn1ccc(Cn2cc(-c3ccc(Br)cc3)cn2)n1 [Example 79, 3-[[4-(4-bromophenyl)pyrazol-1-yl]methyl]-1-methyl-pyrazole]	–	4720 nM	–	–	–
Cn1ccc(Cn2cc(-c3cccc(Br)c3)cn2)n1 [Example 82, 3-[[4-(3-bromophenyl)pyrazol-1-yl]methyl]-1-methyl-pyrazole Succinate]	–	2620 nM	–	–	–
Cc1cc(Cn2cc(-c3cc(F)cc(F)c3)cn2)n(C)n1 [Example 83, 5-[[4-(3,5-difluorophenyl)pyrazol-1-yl]methyl]-1,3-dimethyl-pyrazole]	–	6020 nM	–	–	–
Cn1ccc(Cn2cc(-c3cc(F)cc(F)c3)cn2)n1 [Example 84, 3-[[4-(3,5-difluorophenyl)pyrazol-1-yl]methyl]-1-methyl-pyrazole]	–	–	–	14.6%	45.7%
Cn1ccc(Cn2cc(-c3ccccc3)cn2)n1 [Example 85, 1-methyl-3-[(4-phenylpyrazol-1-yl)methyl]pyrazole]	–	–	–	22.5%	25.3%
Cc1cc(Cn2cc(-c3ccccc3)cn2)n(C)n1 [Example 86, 1,3-Dimethyl-5-[(4-phenylpyrazol-1-yl)methyl]pyrazole]	–	–	–	3.8%	10.9%
Cc1cc(Cn2cc(-c3ccccn3)cn2)n(C)n1 [Example 105, 2-(1-((1,3-dimethyl-1H-pyrazol-5-yl)methyl)-1H-pyrazol-4-yl)pyridine Succinate]	–	–	–	-1.3%	4.4%

Source: US10155727B2, “Pyrazoles” (Janssen Pharmaceuticals, Inc., priority 2014, dated 2018)
